The record followed here is ChEMBL document CHEMBL4382202, “1-(2-Hydroxybenzoyl)-thiosemicarbazides are promising antimicrobial agents targeting d-alanine-d-alanine ligase in bacterio” (Eur J Med Chem, 2018).

Structures are written as SMILES. Calls of active or inactive are those of the source. No cut-off for these calls is given here.

As a reminder, the inhibition is the drop in the measured response relative to a control, in per cent.

Assay [1] concerns the target T1, D-alanine--D-alanine ligase (Enterococcus faecalis (strain ATCC 700802 / V583)) (UniProt Q47758).
T1 sequence (whole entry): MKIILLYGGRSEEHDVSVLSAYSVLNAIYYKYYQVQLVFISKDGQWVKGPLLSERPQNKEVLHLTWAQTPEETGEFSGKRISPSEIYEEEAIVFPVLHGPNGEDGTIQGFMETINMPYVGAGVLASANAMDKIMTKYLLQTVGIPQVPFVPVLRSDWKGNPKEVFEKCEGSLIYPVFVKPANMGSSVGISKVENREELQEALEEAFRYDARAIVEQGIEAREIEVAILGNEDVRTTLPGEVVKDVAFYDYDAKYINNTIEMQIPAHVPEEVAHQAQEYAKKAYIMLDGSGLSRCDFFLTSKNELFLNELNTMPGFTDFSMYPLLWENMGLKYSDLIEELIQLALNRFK
Put plainly: Inhibition of Enterococcus faecalis JH2-2 C-terminal 6His-tagged DdlB expressed in Escherichia coli LMG194 assessed as residual activity at 10 uM preincubated for 30 mins followed by substrate addition and measured after 20 mins by Biomol Green reagent assay relative to control.

The target of assay [2] is T1, D-alanine--D-alanine ligase (Enterococcus faecalis (strain ATCC 700802 / V583)). Put plainly: Inhibition of Enterococcus faecalis JH2-2 C-terminal 6His-tagged DdlB expressed in Escherichia coli LMG194 at 10 uM preincubated for 30 mins followed by substrate addition and measured after 20 mins by Biomol Green reagent assay relative to control.
In assay [3] the test system is Pseudomonas aeruginosa. Put plainly: Antibacterial activity against Pseudomonas aeruginosa PAO1 after 18 to 24 hrs by microdilution assay. It counts as functional, organism-based. Background: In broth dilution the organism is exposed to a series of concentrations in liquid medium.
Assay [4] concerns Klebsiella pneumoniae. Kind of assay: Antibacterial activity against Klebsiella pneumoniae ATCC 700603 after 18 to 24 hrs by microdilution assay. It counts as functional, organism-based.
In assay [5] the test system is Escherichia coli. Kind of assay: Antibacterial activity against Escherichia coli ATCC 25922 after 18 to 24 hrs by microdilution assay. It counts as functional, organism-based.
Assay [6] addresses T1, D-alanine--D-alanine ligase (Enterococcus faecalis (strain ATCC 700802 / V583)). Put plainly: Inhibition of Enterococcus faecalis JH2-2 C-terminal 6His-tagged DdlB expressed in Escherichia coli LMG194 at IC50 after 90 mins by Biomol Green reagent assay relative to control.
For assay [7] the target is unchanged. Put plainly: Inhibition of Enterococcus faecalis JH2-2 C-terminal 6His-tagged DdlB expressed in Escherichia coli LMG194 preincubated for 30 mins followed by substrate addition and measured after 20 mins in presence of 0.01% Triton X-100 by Biomol Green reagent assay.
Assay [8] shares this target. Put plainly: Inhibition of Enterococcus faecalis JH2-2 C-terminal 6His-tagged DdlB expressed in Escherichia coli LMG194 at IC50 after 10 mins by Biomol Green reagent assay relative to control.

As to `O=C(NNC(=S)Nc1ccc(Cl)c(Cl)c1)c1ccccc1`, the Activity in assay [1] was 100%.

For `O=C(NNC(=S)Nc1ccc(Cl)c(Cl)c1)c1ccc(I)cc1O`, in assay [2], the inhibition is above 30%.

In the case of `O=C(NNC(=S)Nc1ccc(F)cc1)c1ccccc1`, the Activity in assay [1] came to 100%.

For the compound `O=C(NNC(=S)Nc1ccc(Cl)c(Cl)c1)c1ccc(O)cc1`, in assay [1], the Activity was 100%.

`O=C(NNC(=S)Nc1ccc(F)cc1)c1ccccc1O` came in with an inhibition in assay [2] above 30%.

In the case of `COc1ccccc1NC(=S)NNC(=O)c1ccccc1O`, the inhibition in assay [2] is above 30%.

In assay [2], `O=C(NNC(=S)Nc1ccc(Cl)cc1)c1ccccc1O` yielded an inhibition above 30%.

Turning to `O=C(NNC(=S)Nc1ccc(Cl)c(Cl)c1)c1cccc(F)c1`, the Activity in assay [1] stood at 100%.

As to `O=C(NNC(=S)Nc1ccc([N+](=O)[O-])cc1)c1ccc(O)cc1`, the Activity in assay [1] is 100%.

On to `O=C(NNC(=S)Nc1cccc(Cl)c1)c1ccccc1O`, for which, in assay [2], the inhibition was above 30%. Moreover, the MIC entry in assay [3], in assay [4] and in assay [5] was “inactive” each time.

Regarding `O=C(NNC(=O)c1ccccc1)Nc1ccc(Cl)c(Cl)c1`, the Activity in assay [1] was 100%.

Consider `O=C(NNC(=S)Nc1cccc(I)c1)c1ccccc1O`, for which the inhibition in assay [2] was above 30%.

Take `O=C(NNC(=S)Nc1ccc(OCc2ccccc2)cc1)c1ccccc1O`: in assay [2], the inhibition is above 30%.

For `O=C(NNC(=S)Nc1cccc(F)c1)c1ccccc1O`, the inhibition in assay [2] was above 30%.

For the compound `O=C(NNC(=S)Nc1ccc(Cl)c(Cl)c1)c1cccc(O)c1`, in assay [1], the Activity came to 100%.

On to `O=c1c2ccccc2ncn1NC(=S)Nc1ccccc1`, for which, in assay [1], the Activity amounted to 100%.

For `O=C(NNC(=S)Nc1cccc(F)c1)c1ccccc1`, the Activity in assay [1] is 100%.

`Nc1ccc(C(=O)NNC(=S)Nc2ccc(Cl)c(Cl)c2)c(O)c1` yielded an inhibition in assay [2] above 30%.

`O=C(NNC(=S)Nc1ccccc1F)c1ccccc1`: the Activity in assay [1] came to 100%.

`CC(=O)c1ccc(NC(=S)NNC(=O)c2ccccc2O)cc1` yielded an inhibition in assay [2] above 30%.

Regarding `O=C(NNC(=S)Nc1ccc(Cl)c(Cl)c1)c1ccc(F)cc1`, the Activity in assay [1] came to 100%.

Take `O=C(NNC(=S)Nc1ccccc1)c1ccccc1O`: the inhibition in assay [2] is above 30%; in assay [6] it was above 90%; in assay [8] it was 60%. The inhibition entry in assay [7] was “Active”.

Compound `N[C@@H]1CONC1=O` had an inhibition in assay [2] above 30%.

Take `O=C(NNC(=S)Nc1cccc2ccccc12)c1ccccc1O`: in assay [2], the inhibition is above 30%.

Consider `O=C(NNC(=S)Nc1ccc(Cl)cc1)c1ccccc1`, for which the Activity in assay [1] stood at 100%.

In assay [2], `O=C(NNC(=S)Nc1ccccc1F)c1ccccc1O` showed an inhibition above 30%.

For `O=C(NNC(=S)Nc1ccccc1Cl)c1ccccc1O`, the inhibition in assay [2] was above 30%. In addition, the MIC result in assay [3], in assay [4] and in assay [5] was “inactive” throughout.

With `O=C(NNC(=S)Nc1ccc(Cl)c(Cl)c1)c1cc2ccccc2cc1O`, the inhibition in assay [2] is above 30%.

Regarding `CCCCCNC(=S)NNC(=O)c1ccccc1O`, the inhibition in assay [2] is above 30%.

As for `O=C(NNC(=S)Nc1cccnc1)c1ccccc1O`, the inhibition in assay [2] was 30%.

Take `O=C(NNC(=S)Nc1ccc(OC(F)(F)F)cc1)c1ccccc1O`: the inhibition in assay [2] is above 30%. Besides, the MIC entry in assay [3], in assay [4] and in assay [5] was “inactive” in each case.

As for `O=C(NNC(=S)Nc1cccc(Cl)c1)c1ccccc1`, the Activity in assay [1] stood at 100%.

Turning to `O=C(NNC(=S)Nc1ccc(Cl)c(Cl)c1)c1ccccc1F`, in assay [1], the Activity amounted to 100%.

With `N#Cc1ccc(NC(=S)NNC(=O)c2ccccc2O)cc1`, in assay [2], the inhibition is above 30%.

With `COc1ccccc1C(=O)NNC(=S)Nc1ccc(Cl)c(Cl)c1`, the Activity in assay [1] worked out at 100%.

In assay [2], `O=C(NNC(=S)NCCCN1CCOCC1)c1ccccc1O` came in with an inhibition of 30%.

As to `O=C(NNC(=O)c1ccccc1O)Nc1ccc(Cl)c(Cl)c1`, the Activity in assay [1] came to 100%.

In turn, `COc1ccc(NC(=S)NNC(=O)c2ccccc2O)cc1` displayed an inhibition in assay [2] above 30%.

In the case of `O=C(NNC(=S)Nc1ccccc1Cl)c1ccccc1`, the Activity in assay [1] is 100%.

In assay [2], `O=C(NNC(=S)Nc1ccc(Cl)cc1Cl)c1ccccc1O` showed an inhibition above 30%. Further, the MIC result in assay [3], in assay [4] and in assay [5] was “inactive” throughout.
